Test results: patent US9308215B2, “Avermectins and milbemycins as anti-mycobacterial agents” (priority 2013, dated 2016)
≈ marks a conversion by molar mass, not a printed value. Like-named read-outs stand apart in the source and are kept apart here.

Assays:
[1] = system: E. coli; assay: microbe, parasite or virus in culture; type: cell-based, Escherichia coli; conditions: strain O157:H7, WT
[2] = system: A. baumannii; assay: microbe, parasite or virus in culture; type: cell-based, Acinetobacter baumannii; conditions: strain ATCC 1960, WT
[3] = system: P. aeruginosa; assay: microbe, parasite or virus in culture; type: cell-based, Pseudomonas aeruginosa; conditions: strain PA01 (H103), WT
[4] = system: S. lividans; assay: microbe, parasite or virus in culture; type: cell-based, Streptomyces lividans; conditions: strain 1326, WT
[5] = system: R. jostii; assay: microbe, parasite or virus in culture; type: cell-based, Rhodococcus jostii; conditions: strain RHA1, WT
[6] = system: K. rhizophila; assay: microbe, parasite or virus in culture; type: cell-based, Kocuria rhizophila; conditions: WT
[7] = system: S. aureus; assay: microbe, parasite or virus in culture; type: cell-based, Staphylococcus aureus; conditions: strain ATCC 25923, WT
[8] = system: M. smegmatis; assay: microbe, parasite or virus in culture; type: cell-based, Mycobacterium smegmatis; conditions: strain mc^2155, WT
[9] = system: M. bovis BCG; assay: microbe, parasite or virus in culture; type: cell-based, Mycobacterium bovis; conditions: strain BCG Pasteur, WT
[10] = system: M. tuberculosis; assay: microbe, parasite or virus in culture; type: cell-based, Mycobacterium tuberculosis
[11] = system: M. aurum; assay: MIC against mycobacterial species; type: cell-based; conditions: M. aurum
[12] = system: M. avium; assay: MIC against mycobacterial species; type: cell-based, Mycobacterium avium
[13] = system: M. chelonae; assay: MIC against mycobacterial species; type: cell-based; conditions: M. chelonae
[14] = system: M. gordonae; assay: MIC against mycobacterial species; type: cell-based; conditions: M. gordonae 324
[15] = system: M. intracellulare; assay: MIC against mycobacterial species; type: cell-based
[16] = system: M. microti; assay: microbe, parasite or virus in culture; type: cell-based
[17] = system: M. phlei; assay: MIC against mycobacterial species; type: cell-based; conditions: M. phlei
[18] = system: M. tuberculosis H37Rv and mc25857 (an MDR isolate); type: cell-based, Mycobacterium tuberculosis; conditions: in vitro against M. tuberculosis, survival kinetics
[19] = system: M. tuberculosis Erdman; assay: Mouse in vivo TB model, acute (GKO); conditions: for Toxicity / Log10 cfu reduction (lungs): Acute (GKO), Erdman; for Log10 cfu reduction (lungs): 50/35/15 H2O/PEG300/PG
Procedure: Mice were low-dose aerosol infected (50-100 bacteria). In the acute model, immune compromised mice were left untreated for 13 days to allow the infection to become established before 9 days of consecutive drug therapy was initiated. Drugs were administered by oral gavage. Log10 cfu reductions in the lungs were compared to untreated group. Rifampin was included as an internal control. An ordinary one-way ANOVA Bonferroni's multiple comparisons test was used to calculate p values. A p value<0.05 indicates statistically significant differences compared to the control group (vehicle).
Using an acute TB model, immune compromised mice were low-dose aerosol infected and then left untreated for 13 days to allow the infection to become established before 9 days of consecutive drug therapy was initiated. Drugs were administered orally and Log10 cfu reductions in the lungs were compared to and untreated group (vehicle) to rifampin treatment. […] Rifampicin was included as control.

[20] = system: M. tuberculosis Erdman; assay: Mouse in vivo TB model, chronic (Balb/C); conditions: 10 mg/kg bw PO
[21] = system: representative Gram-positive and Gram-negative bacteria; type: cell-based
[22] = Horses, 200 μg/kg oral; cited from earlier work
[23] = 0.2 mg/kg oral, cited from earlier work
[24] = cited from earlier work; for Cmax / AUC / T½: Humans
[25] = Dogs, 250 μg/kg oral; cited from earlier work
[26] = mice; cited from earlier work
[27] = single dose, clinical studies, cited from earlier work
[28] = ivermectin: extra-label use; selamectin, moxidectin: therapeutic doses; cited from earlier work
[29] = less sensitive strains CI15072, CI12081, BC-MDR2, BC-DS4 and BC-DS5

For CC[C@H](C)[C@H]1O[C@]2(CC[C@@H]1C)C[C@@H]1C[C@@H](C/C=C(\C)[C@@H](O[C@H]3C[C@H](OC)[C@@H](O[C@H]4C[C@H](OC)[C@@H](O)[C@H](C)O4)[C@H](C)O3)[C@@H](C)/C=C/C=C3\CO[C@@H]4[C@H](O)C(C)=C[C@@H](C(=O)O1)[C@]34O)O2 [Ivermectin], the “In vitro MIC90” value [1] was over 256 µg/mL, the “In vitro MIC90” value [2] was over 256 µg/mL and the “In vitro MIC90” value [3] was over 256 µg/mL. The “In vitro MIC90” value [4] was over 256 µg/mL, the “In vitro MIC90” value [5] was over 256 µg/mL and the “In vitro MIC90” value [6] was over 256 µg/mL. The “In vitro MIC90” value [7] was over 256 µg/mL, the “In vitro MIC90” value [8] was 8 µg/mL and the “In vitro MIC90” value [9] was 4 µg/mL. For the same molecule, the MIC50 [10, 29] was under 8 µg/mL, the MIC90 [10, 29] was 24 µg/mL (≈ 27.4 µM) and the “In vitro MIC90” value ([10]; strain 1254, WT) was 8 µg/mL. For the same molecule, the “In vitro MIC90” value ([10]; strain BC-DS1 (drug-susceptible)) was 4 to 16 µg/mL, the “In vitro MIC90” value ([10]; strain BC-DS3 (drug-susceptible)) was 8 to 16 µg/mL and the “value in parentheses in MIC90 column (MIC50)” value (“value in parentheses” below) ([10]; strain BC-DS4) was 8 µg/mL. The “In vitro MIC90” value ([10]; strain BC-DS4 (drug-susceptible)) was 64 µg/mL, the “value in parentheses” value ([10]; strain BC-DS5) was 8 µg/mL and the “In vitro MIC90” value ([10]; strain BC-DS5 (drug-susceptible)) was over 128 µg/mL. The “value in parentheses” value ([10]; strain BC-MDR2) was 8 µg/mL, the “In vitro MIC90” value ([10]; strain CDC 1551, WT) was 4 to 8 µg/mL and the “In vitro MIC90” value ([10]; strain Erdman, WT) was 8 µg/mL. The “In vitro MIC90” value ([10]; strain H37Rv, WT) was 6 µg/mL, the MIC [11] was 2 µg/mL (≈ 2.29 µM) and the MIC ([12]; M. avium 702) was over 256 µg/mL. It also gave an MIC ([12]; M. avium 715) of over 256 µg/mL, an MIC ([12]; M. avium ATCC 25291) of over 128 µg/mL and an MIC [13] of 4 µg/mL (≈ 4.57 µM). The MIC [14] was 4 µg/mL (≈ 4.57 µM), the MIC ([15]; M. intracellulare 1403 ATCC35761) was 4 µg/mL (≈ 4.57 µM) and the MIC ([15]; M. intracellulare 1403 Trudeau) was 4 µg/mL (≈ 4.57 µM). The MIC ([15]; M. intracellulare D673) was 8 µg/mL (≈ 9.14 µM), the MIC ([15]; M. intracellulare FM) was 8 µg/mL (≈ 9.14 µM) and the MIC ([16]; M. microti 1601) was 4 µg/mL (≈ 4.57 µM). The MIC ([16]; M. microti 1608) was 256 µg/mL (≈ 293 µM), the MIC [17] was 32 µg/mL (≈ 36.6 µM) and the bactericidal or bacteriostatic [18] was “Bactericidal”. For the same molecule, the “activity in vivo in acute TB model” value ([19]; 5 and 10 mg/kg doses, oral, Erdman 107) was “did not show activity”, the Toxicity ([19]; 5 mg/kg bw PO) was “None” and the “Log10 cfu reduction (lungs)” value ([19]; 5 mg/kg bw PO) was 0.32 Log10 cfu. For the same molecule, the Toxicity ([19]; 10 mg/kg bw PO) was “None”, the “Log10 cfu reduction (lungs)” value ([19]; 10 mg/kg bw PO) was 0.4 Log10 cfu and the Toxicity [20] was “None”. The “Log10 cfu reduction (lungs)” value ([20]; 50/35/15 H2O/PEG300/PG) was −0.11 Log10 cfu, the Inhibitory effects [21] was “not observed” and the AUC [22] was 3184 ng·h/mL. For the same molecule, the Cmax [22] was 44 ng/mL, the T½ [22] was 20 h and the Cmax ([23]; Mouse (lung)) was 20 ng/mL. The AUC ([23]; Mouse (plasma)) was 573 ng·h/mL, the Cmax ([23]; Mouse (plasma)) was 20 ng/mL and the T½ ([23]; Mouse (plasma)) was 9.3 h. For the same molecule, the Cmax ([24]; 12 mg (165 μg/kg) oral) was 47 ng/mL, the AUC ([24]; 30 mg (347-541 μg/kg) oral) was 2819 ng·h/mL and the Cmax ([24]; 30 mg (347-541 μg/kg) oral) was 85 ng/mL. The T½ ([24]; 30 mg (347-541 μg/kg) oral) was 19 h, the AUC ([24]; 30 mg (fed) oral) was 4564 ng·h/mL and the Cmax ([24]; 30 mg (fed) oral) was 260 ng/mL. For the same molecule, the T½ ([24]; 30 mg (fed) oral) was 15 h, the AUC ([24]; 90 mg (1031-1466 μg/kg) oral) was 2910 ng·h/mL and the Cmax ([24]; 90 mg (1031-1466 μg/kg) oral) was 158 ng/mL. The T½ ([24]; 90 mg (1031-1466 μg/kg) oral) was 19 h, the AUC ([24]; 120 mg (1404-2000 μg/kg) oral) was 4547 ng·h/mL and the Cmax ([24]; 120 mg (1404-2000 μg/kg) oral) was 247 ng/mL. For the same molecule, the T½ ([24]; 120 mg (1404-2000 μg/kg) oral) was 19 h, the plasma concentrations ([24]; healthy volunteers, 120 mg) was “ca. 0.25 μg/mL” and the “maximal concentration in plasma” value ([24]; standard dose of 12 mg) was “ca. 50 ng/mL”. For the same molecule, the AUC [25] was 5600 ng·h/mL, the Cmax [25] was 132 ng/mL and the T½ [25] was 80 h. The LD50 [26] was 25 mg/kg body weight, the “dose reported safe in humans” value [27] was at most 120 mg and the “dose reported safe in humans” value ([27]; listed as ivermectin) was 120 mg. For the same molecule, the “toxicity in dogs lacking MDR1 P-glycoprotein / homozygous MDR1 mutation” value [28] was “severe signs of neurotoxicity”.
